From patent publication US20180024136A1, “Development of ABCG2-Sensitive Fluorescent Probe For Isolation of ABCG2low Neural Stem/Progenitor Cells” (National University of Singapore, priority 2015, published 2018)

Experiments:
NS-5 cells = test: DOFLA screening: live cell staining of MEF, mESC, NS5 and differentiated NS5; type: cell-based, mouse; details: 1 μM, 1 hour, NS5, D-NS5
Protocol: The screening platform was composed of mouse embryonic fibroblast (MEF), mouse embryonic stem cells (mESC), NS5 and differentiated NS5 (D-NS5) (FIG. 4). A derivate from the CF library was selected having eleven saturated carbon chain (CF-C11), named as compound of designation green 13 (CDg13, λabs/λem=520/553 nm; quantum yield=0.82) (FIG. 4A, Table 3). […] To characterize the subcellular target of the CDg13 probe, the image of CDg13 using confocal microscopy was analyzed. The CDg13 stained organelle was clearly merged with the staining of a molecular probe that targeted endoplasmic reticulum (ER), but not with Golgi, lysosome, and mitochondria targeted probes (FIG. 4C). The value of co-localization with ER was appeared as 0.97 on both of Pearson's Collection and Mander's overlap, whereas other organelle markers were below 0.83.
Screening of fluorescent probes of DOFL was conducted using high-throughput imaging analysis as previously described^7.
Hoechst 33342 (2 μM) and CDg13 (1 μM) were added to the cell culture medium. After incubation for 1 hour, culture media were changed with BSA-free medium to maintain CDg13 staining. […] The subcellular staining was observed under confocal microscope and their co-localizations were analyzed by Pearson's Collection and Mander's overlap using NIS-Elements software of Eclipse Ti microscope (Nikon).

ABCB1 = ABCB1 (Homo sapiens, UniProt P08183); test: in vitro
Chain of ABCB1 (P08183 whole entry): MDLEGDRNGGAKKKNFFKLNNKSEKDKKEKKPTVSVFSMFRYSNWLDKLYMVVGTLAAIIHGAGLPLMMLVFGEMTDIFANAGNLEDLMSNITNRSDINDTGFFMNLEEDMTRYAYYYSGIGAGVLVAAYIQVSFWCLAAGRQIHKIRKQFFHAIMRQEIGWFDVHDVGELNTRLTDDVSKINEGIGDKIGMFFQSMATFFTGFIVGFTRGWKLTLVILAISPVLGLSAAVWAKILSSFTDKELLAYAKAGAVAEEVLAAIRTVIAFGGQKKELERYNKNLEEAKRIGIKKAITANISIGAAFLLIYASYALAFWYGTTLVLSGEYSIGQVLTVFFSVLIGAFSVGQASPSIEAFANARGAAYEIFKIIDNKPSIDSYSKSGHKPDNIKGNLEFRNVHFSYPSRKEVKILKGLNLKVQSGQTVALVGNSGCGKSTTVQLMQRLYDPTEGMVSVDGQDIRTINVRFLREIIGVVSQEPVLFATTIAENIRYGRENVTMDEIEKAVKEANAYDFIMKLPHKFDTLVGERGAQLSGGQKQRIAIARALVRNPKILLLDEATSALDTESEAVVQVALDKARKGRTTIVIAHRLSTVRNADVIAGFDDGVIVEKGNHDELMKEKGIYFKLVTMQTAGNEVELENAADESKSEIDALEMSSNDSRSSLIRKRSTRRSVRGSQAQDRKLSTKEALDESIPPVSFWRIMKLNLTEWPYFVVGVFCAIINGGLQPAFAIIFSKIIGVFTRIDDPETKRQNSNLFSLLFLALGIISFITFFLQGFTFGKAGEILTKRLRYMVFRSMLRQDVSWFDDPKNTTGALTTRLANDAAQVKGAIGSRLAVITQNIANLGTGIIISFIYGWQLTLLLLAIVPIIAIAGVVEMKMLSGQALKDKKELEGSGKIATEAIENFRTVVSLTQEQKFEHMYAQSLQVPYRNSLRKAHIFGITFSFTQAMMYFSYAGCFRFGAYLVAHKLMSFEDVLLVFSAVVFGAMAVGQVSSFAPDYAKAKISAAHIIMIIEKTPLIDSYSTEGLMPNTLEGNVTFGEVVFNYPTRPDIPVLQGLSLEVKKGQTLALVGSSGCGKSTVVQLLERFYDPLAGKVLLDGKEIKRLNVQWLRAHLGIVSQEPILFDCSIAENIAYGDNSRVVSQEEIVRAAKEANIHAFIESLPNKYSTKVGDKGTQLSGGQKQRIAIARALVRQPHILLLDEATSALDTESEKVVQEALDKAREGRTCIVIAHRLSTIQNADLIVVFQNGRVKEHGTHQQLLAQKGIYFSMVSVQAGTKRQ

[1] = test system: E14.5 mouse embryonic brain cells; test: Neurosphere formation of FACS-sorted E14.5 embryonic brain cells; type: cell-based; details: 6 days culture, >50 μm diameter, 10,000 cells/well
Excerpt: For the counting of the number of neurosphere, we selected 6 days-cultured neurospheres having larger than 50 μm of diameter. The whole neurospheres in a well were counted to reduce random counting error using EVOS microscope (Advanced Microscopy Group).
E14.5 embryos were obtained from C57BL/6 pregnant mice. Cerebral cortices were removed and triturated into single-cell suspension by digestion of dissected tissues with StemPro® Accutase® (Invitrogen) and filtered through 40 μm nylon mesh. The brain cells were collected by centrifugation with 400×g for 3 min and resuspended in neurosphere growth medium [DMEM/F12 supplemented with 2% B27 (without vitamin A), bFGF (10 ng/ml), EGF (20 ng/ml), 1× anti-anti]. The cells were stained for 1 hour with 1 μM of CDg13 in neurosphere growth medium. After collecting cells by centrifuge as described above, the cells were resuspended to BSA-free DMEM (phenol red free) and added propidium iodide (PI) at a concentration of 1 μg/ml to distinguish dead cells. FACS sorting was performed using the MoFlo XDP cell sorter (Beckman Coulter). Cells were sorted by pre-gating with FSC/SSC properties to exclude small debris having FSC^low/SSC^low. To isolate CDg13 stained cell population, we used a 488 nm laser excitation and a 529/28 BP filter to collect emitted light. Dead cells stained by PI were detected with a 488 nm excitation and a 620/29 BP emission. […]

Abcg2 = test: CDg13 staining of Abcg2 knockdown D-NS5 cells; type: cell-based, mouse; details: D-NS5, siAbcg2 versus controls, 1 hour staining
Protocol: FIGS. 9A-9D show gene expression of ABC transporters: (A) undifferentiated (NS5) and 3-days differentiated NS5 (D-NS5), (B) the mRNA expression of the indicated ABC transporters were analyzed by qRT-PCR using total RNA from control and Abcg2-targeted siRNA transfected D-NS5 cells (N=3), and (C) and (D) negative (−) control siRNA (siCon) and Abcg2-targeted siRNA (siAbcg2) treated D-NS5 cells were stained with CDg13 for 1 hour, representative cells image (C) and the intensity staining of CDg13 (D) are shown (N=3) (data were normalized by β-actin expression and represented as relative fold, all values are means±SEM, *, p<0.05; **, p<0.01, unpaired two-tailed Student's T-test was used to calculate statistical significance)(Bar in (C): 100 μm).
siRNAs targeted to mouse ABCG2 gene and non-targeted control (Santa Cruz) were transiently introduced to 2 days differentiated NS-5 cells by using RNAiMAX (Invitrogen). We used 20 nM of siRNA and 3 μl of RNAiMAX for transfecting one well of 12-well plate (70-80% confluence with cells). Transfection efficiency in the condition was more than 90% as measured by fluorescence non-targeted siRNA. The levels of RNA and their analysis were performed after 3 days of transfection.

human KB3-1 cells = test: MTS viability assay on KB3-1 cells; type: cell-based; details: 48 h

## CCCCCCCCCN(CCCCCCCCC)C(=O)c1ccc(-c2c3cc(Cl)c(=O)cc-3oc3cc(O)c(Cl)cc23)cc1 [CDg13]
NS-5 cells
  cell type staining selectivity: preferentially stains undifferentiated NS-5 cells, a NSPC line, but not other cell types
ABCB1
  fold induction at 1 h, 10 µM: 1.5
[1]
  number of neurospheres of CDg13^bright cells compared to CD133^high cells: 1.5 fold
  number of neurospheres of CDg13^bright cells compared to unsorted brain cells: 5.9 fold
Abcg2
  CDg13 staining increase by Abcg2 knockdown: around 2 fold
Human KB3-1 cells; 1 to 10 μM
  toxicity: No toxicity was observed
Human KB3-1 cells
  concentration at which cells started dying: 50 µM
